According to paper PMC10531319, “Hemostatically Active Proteinase Produced by Aspergillus ochraceus: Key Specific Properties and Effect on Target Proteins” (International Journal of Molecular Sciences, 2023):
Non-standard residues stand in square brackets, D forms with d. Residues, ends and D or L forms follow the SMILES beside them. *: point of attachment. pNA = O=[N+]([O-])c1ccc(N*)cc1

Tested on: T1, A. ochraceus proteinase
T1 construct: native extracellular enzyme from culture liquid; about 35 kDa, non-glycosylated
Assay: chromogenic assay, pNA release at […] nm, Lineweaver-Burk and Eadie-Hofstee plots
Format: biochemical, Aspergillus ochraceus
Settings: 0.05 M Tris-HCl pH 8.2, 37 °C; substrate 0.25-2.0 mg/mL

Km: 3.48 mM
SMILES: CC(C)C[C@@H](N)C(=O)N[C@@H](CCCCN)C(=O)Nc1ccc([N+](=O)[O-])cc1 [H-D-Leu-Lys-pNA] (H-[dL]-Lys-pNA)
